Assay type in all cases: cell-based
The nature of data set [1]: Cytotoxicity (CC50) in parallel plates of the anti-HCV assay. Conditions: human. As for the experimental part:
(§1) Antiviral activity against HCV is determined using the stably-expressing HCV replicon cell line, AVA5 (sub-genomic (CON1), genotype 1b) (Okuse, et al., Antivir. Res. 65:23 (2005); Korba, et al., Antivir. Res. 77:56 (2008); Blight, et al., Science 290:1972 (2000)). Reductions in intracellular HCV RNA are determined with respect to a cellular control (B-actin) by blot hybridization. Cytotoxicity is assessed by neutral red dye uptake in parallel plates.
(§2) Efficacy and cell cytotoxicity values (EC50, EC90 and CC50) are calculated by linear regression analysis (MS EXCEL®, QuattroPro®) (Korba & Gerin, Antivir. Res. 19:55 (1992); Okuse, et al., Antivir. Res. 65:23 (2005)). The therapeutic index is calculated as CC50/EC50. Recombinant human interferon 2b (PBL laboratories, Inc.) is included as a positive control. Activity is subsequently tested against additional genotypes (e.g., genotype 1a) using the format described for the primary assay. In addition to antiviral assays described herein, several other types of anti-HCV activities can also be assessed using methods known to one of ordinary skill in the art.

In data set [2] the test system is HepG2 cells. In words: Mitochondrial Biogenesis Assay. Conditions: 7 days, ratio of Complex IV to Frataxin. As for the experimental part: Cells used: HepG2 cells were obtained from ATCC. Cells are used up to 25 passages from the ATCC freeze.
Mitochondria Biogenesis Assay using HepG2 cells: 150,000 HepG2 cells were plated per well in a 6-well plate. Compounds were diluted in DMSO and further diluted in the plated cells so as to give a top concentration of 50 μM. Five four-fold dilutions were tested in this assay format. Plates were then incubated in a CO2 incubator at 37° C. for 7 days. Medium containing fresh compound was changed on day 3 and 6 of the assay. Cells were harvested on day 7 of the assay.
On day 7, cells were rinsed with 1×DPBS three times and scraped off into 1×DPBS and held on ice. Whole cell protein estimation was determined to make sure that the cells are suspended at a protein concentration of 3-5 mg/ml.
Cells were lysed on ice by addition of 1:10 volume of diluted detergent (MitoSciences) so as to have a final detergent concentration of 2%. Cells were held on ice for 1 hr and then centrifuged at ˜20K×g for 20 min. The supernatant fraction was used for determining solubilized Frataxin and Complex IV using an ELISA kit from MitoSciences. The ratio of Complex IV to Frataxin was used to determine mitochondrial toxicity. DMSO controls were run to determine ratio of Frataxin and Complex IV in control cells. ddC was run as a positive control in the assay.

In data set [3] the test system is HCV. As to the kind of experiment: Anti-HCV activity (HCV replicon assay). Conditions: Hepatitis C virus. How it is done:
as §1
as §2, with “art. […]” for “art.”

The nature of data set [4]: MT4 Cell Toxicity Assay. Conditions: human. As for the experimental part: Cells used: MT4 cells were obtained from NIH AIDS research & Reference Reagent Program. Cells were used up to passage 30.
Toxicity assay using MTS: 5,000 MT4 cells were plated per well in a 96-well plate. Compounds were diluted in DMSO and further diluted with medium before adding to the plated cells. Plates were then incubated in a CO2 incubator at 37° C. for 6 days.
Cell viability was estimated using MTS, a tetrazolium compound [3-(4,5-dimethylthiazol-2-yl)-5-(3-carboxymethoxyphenyl)-2-(4-sulfophenyl)-2H-tetrazolium], which is converted to a soluble formazan by mitochondrial dehydrogenases in the presence of an electron coupling reagent (phenazine methosulfate; PMS). The formazan product has an absorption maximum around 490 nm. Forty microliters of MTS reagent [MTS (2 mg/ml) and PMS (0.92 mg/ml) mixed at a ratio of 20:1 just before use] was added to each well and plates incubated for 4 hrs at 37° C. Absorbance was read at 490 nm using a Synergy 2 plate reader (BioTek). Data analysis was carried out using the BioTek Gen5 software using a 4-parameter curve fitting function to determine CC50 values.

The mark [5] stands for this setting: AVA5 HCV replicon cells (sub-genomic CON1, genotype 1b).
[6] abbreviates: anti-HCV activity, read-out: EC50.
The mark [7] stands for this setting: MT4 cells, 6 days, MTS, read-out: MT-4 (TC50).

Like-named read-outs stand apart in the source and are kept apart here. A value given as a limit tells only on which side of the number the result lay.

Regarding `C[C@@]1(F)[C@H](O)[C@@H](CO)O[C@H]1n1cc(Br)c2c(N)ncnc21` [Compound c], the CC50 in data set [1] (setting [5]) was in the range of 20 to 100 µM.

As usually defined, the EC50 is the midpoint of the concentration-response curve. With `CCCCCCCCCCCCCCCCOCCCOP(=O)(O)OC[C@H]1O[C@@H](n2cc(C#N)c3c(N)ncnc32)[C@H](O)[C@@H]1O` [Compound b], the “Mitotoxicity (μM)” value in data set [2] is on record as “* (up to 20 μM)”. In addition, the EC50 in data set [3] (setting [6]) was under 0.1 µM. Further, the CC50 at 6 days in data set [4] (MT-4 (TC50) (μM)) is under 1 µM. Moreover, in data set [1] (setting [5]), the CC50 is under 1 µM.

Take `CC(C)=CCNc1ncnc2c1c(/C(N)=N\O)cn2[C@@H]1O[C@H](CO)[C@@H](O)[C@H]1O` [Compound a]: the “Mitotoxicity (μM)” value in data set [2] was “* (up to 20 μM)”. Moreover, the concentration giving a half-maximal response (EC50) in data set [3] (setting [6]) was under 0.1 µM. Also, the CC50 at 6 days in data set [4] (MT-4 (TC50) (μM)) is over 100 µM. Further, in data set [1] (setting [5]), the CC50 was under 1 µM.

Regarding `[N-]=[N+]=N[C@H]1C(O)C(CO)OC1n1cc(C(N)=S)c2c(N)ncnc21` (stereo partly drawn) [Compound l], the “Mitotoxicity (μM)” value in data set [2] is “*** (50-80 μM)”. Moreover, in data set [3] (setting [6]), the 50% effective concentration (EC50) was 0.1 to 1 µM. Besides, the CC50 at 6 days in data set [4] (MT-4 (TC50) (μM)) is over 100 µM. In data set [1] (setting [5]), this compound yielded a CC50 of 1 to 20 µM.

Turning to `CNC(=O)c1csc(-c2cn([C@@H]3O[C@H](CO)[C@@H](O)[C@H]3O)c3ncnc(N)c23)c1` [Compound o], in data set [3] (setting [6]), the EC50 was 1 to 5 µM. Moreover, the CC50 in data set [1] (setting [5]) lay within 20 to 100 µM.

Take `C[C@@]1(F)[C@H](O)[C@@H](CO)O[C@H]1n1cc(-c2cccs2)c2c(N)ncnc21` [Compound f]: the “Mitotoxicity (μM)” value in data set [2] is recorded as “* (up to 20 μM)”. Besides, the EC50 in data set [3] (setting [6]) is over 5 µM.

On to `CCCCCCCCCCCCCCCCOCCCOP(=O)(O)OC[C@H]1O[C@@H](n2cc(C(N)=S)c3c(N)ncnc32)[C@H](O)[C@@H]1O` [Compound h], for which the EC50 in data set [3] (setting [6]) is under 0.1 µM. Moreover, the CC50 at 6 days in data set [4] (MT-4 (TC50) (μM)) was under 1 µM. In data set [1] (setting [5]), this compound registered a CC50 of under 1 µM.

On to `NC(=S)c1cn(C2O[C@H](CO)[C@@H](O)[C@H]2O)c2ncnc(N)c12` (stereo partly drawn) [Compound p], for which the “Mitotoxicity (μM)” value in data set [2] is reported as “* (up to 20 μM)”. The EC50 in data set [3] is under 0.1 µM. The CC50 at 6 days in data set [4] (setting [7]) was under 1 µM. Moreover, in data set [1], the CC50 was under 1 µM.

For `C[C@@]1(O)[C@H](O)[C@@H](CO)O[C@H]1n1cc(C#N)c2c(N)ncnc21` [Compound j], in data set [2], the “Mitotoxicity (μM)” value is listed as “** (20-50 μM)”. In addition, the EC50 in data set [3] (setting [6]) is 0.1 to 1 µM. Further, in data set [4] (MT-4 (TC50) (μM)), the CC50 at 6 days was 20 to 100 µM.

In turn, `COC(=O)[C@H](C)NP(=O)(OC[C@H]1O[C@@H](n2cc(C(N)=S)c3c(N)ncnc32)[C@H](O)[C@@H]1O)Oc1ccccc1` (stereo partly drawn) [Compound g] returned a 50% effective concentration (EC50) in data set [3] of under 0.1 µM. In data set [4] (setting [7]), the CC50 at 6 days was under 1 µM. In addition, in data set [1], the CC50 is under 1 µM.

For `CCCCCCCCCCCCCCCCOCCCOP1(=O)OC[C@H]2O[C@@H](n3cc(C(N)=S)c4c(N)ncnc43)[C@H](O)[C@@H]2O1` (stereo partly drawn) [Compound q], the EC50 in data set [3] (setting [6]) was under 0.1 µM. For the same compound, in data set [4] (MT-4 (TC50) (μM)), the CC50 at 6 days was under 1 µM. This compound also yielded a CC50 in data set [1] (setting [5]) of 1 to 20 µM.

For the compound `CC(C)CCNc1ncnc2c1c(C(=N)NO)cn2[C@@H]1O[C@H](CO)[C@@H](O)[C@H]1O` [Compound n], in data set [3] (setting [6]), the EC50 lay in the range of 1 to 5 µM. Also, the CC50 at 6 days in data set [4] (MT-4 (TC50) (μM)) is over 100 µM. The CC50 in data set [1] (setting [5]) was 1 to 20 µM.

In the case of `COC(=N)c1cn(CC2(F)COC(CO)C2O)c2ncnc(N)c12` (stereo not drawn) [Compound m], the EC50 in data set [3] (setting [6]) was over 5 µM. Also, in data set [4] (MT-4 (TC50) (μM)), the CC50 at 6 days lay in the range of 20 to 100 µM.

Take `C[C@]1(O)C(n2cc(C(N)=S)c3c(N)ncnc32)O[C@H](CO)[C@H]1O` (stereo partly drawn) [Compound d]: in data set [2], the “Mitotoxicity (μM)” value is given as “* (up to 20 μM)”. Besides, the concentration giving a half-maximal response (EC50) in data set [3] (setting [6]) lay in the range of 1 to 5 µM. Moreover, in data set [4] (MT-4 (TC50) (μM)), the CC50 at 6 days lay in the range of 1 to 20 µM.

For the compound `CNC(=O)c1csc(-c2cn([C@@H]3O[C@H](CO)[C@@H](O)[C@@]3(C)O)c3ncnc(N)c23)c1` [Compound e], the CC50 in data set [1] (setting [5]) lay in the range of 20 to 100 µM.

Turning to `COC(=O)[C@H](C)NP(=O)(OC[C@H]1O[C@@H](n2cc(C(N)=S)c3c(N)ncnc32)[C@](C)(O)[C@@H]1O)Oc1ccccc1` (stereo partly drawn) [Compound k], the “Mitotoxicity (μM)” value in data set [2] was “* (up to 20 μM)”. In data set [3], this compound came in with an EC50 of 0.1 to 1 µM. In data set [4] (setting [7]), the CC50 at 6 days was 20 to 100 µM. Besides, the CC50 in data set [1] lay in the range of 1 to 20 µM.

As for `Nc1ncnc2c1c(Br)cn2[C@@H]1O[C@H](CO)[C@@H](O)[C@H]1O` [Compound r], the concentration giving a half-maximal response (EC50) in data set [3] (setting [6]) is 1 to 5 µM. Moreover, in data set [4] (MT-4 (TC50) (μM)), the CC50 at 6 days was in the range of 1 to 20 µM.

(Values after patent US20100297079A1, “COMPOUNDS, COMPOSITIONS AND METHODS FOR TREATING VIRAL INFECTION” (Chimerix, Inc., priority 2009, published 2010).)
